In patent US10533161B2, “NADPH oxidase proteins” (Universite Grenoble Alpes, priority 2014, dated 2020):
Entries after “also recorded” stand apart in the source; their conditions may differ.

Key:
[1] = system: eukaryotic NOX; settings: commercial molecules targeting the eukaryotic NOX; cited from earlier work
[2] = system: SpNox; assay: NADPH oxidase activity of SpNox by colorimetry (NBT reduction, 96-well plate); format: biochemical, Streptococcus pneumoniae; settings: absorbance at 560 nm, 5 concentrations 0.01-100 μM (DPI 0.005-50 μM), triplicate
Description: The oxidase activity is determined by measuring the kinetics of reduction of NBT by the O2.^− ions, by monitoring the increase in absorbance at 560 nm (molar extinction coefficient of NBT: ε560=30 000 mM^−1.cm^−1). It is also possible to use a wavelength of 550 nm SpNox is incubated with a reaction mixture containing the molecule to be tested, NBT, FAD and the protein storage buffer for 5 to 20 min at 25° C. The reaction is then started by adding NADPH.
The NADPH oxidase activity is then quantified at the end point by determining the intensity of the coloration compared to a positive control. The positive control is carried out with the SpNox protein alone, without the molecule to be tested.
The compounds present in each well of the plate are, as final concentration: • 0.1 μg of SpNox; • 2 μM of FAD; • 125 μM of NBT; • 150 μM NADPH; • Molecule A; • SpNox storage buffer q.s. 200 μL.
All the experiments were carried out in triplicate and each molecule was tested at 5 different concentrations. The concentration range is deliberately wide so as to be able to include the possible IC50 values of each molecule. The concentrations selected are: 0.01-0.1-1-10-100 μM.

SMILES	Property (NADPH oxidase activity of the eukaryotic NOX) [1]	Effect on the NADPH oxidase activity of SpNox [2]
c1ccc(Cn2nnc3c(Sc4nc5ccccc5o4)ncnc32)cc1 [VAS2870]	Inhibitor	
O=c1c2ccccc2[se]n1-c1ccccc1 [Ebselen]	Inhibitor	inhibitors of SpNox
c1ccc2c(c1)[IH]c1ccccc1-2 [DPI, diphenyleneiodonium chloride]	Inhibitor	inhibits the reaction; also recorded: inhibitory effect; also recorded: inhibitors of SpNox
Oc1cc(O)c2c(c1)O[C@H](c1ccc(O)c(O)c1)[C@@H](O)C2 [Catechin]	Inhibitor	inhibitors of SpNox
Cc1ccccc1-n1sc2cc(F)ccc2c1=O [Thr101]	Inhibitor	inhibitors of SpNox
CC1=C(O)C(=O)C=C2C1=CC=C1[C@@]2(C)CC[C@@]2(C)[C@@H]3C[C@](C)(C(=O)O)CC[C@]3(C)CC[C@]12C [Celastrol]	Inhibitor	inhibitors of SpNox
CCCCC/C=C\C/C=C\C/C=C\C/C=C\CCCC(=O)O [Arachidonic acid (AA), Arachidonic acid]	Activator	stimulates the production of superoxide; also recorded: activator of SpNox
O=C(O[C@@H]1Cc2c(O)cc(O)cc2O[C@@H]1c1ccc(O)c(O)c1)c1cc(O)c(O)c(O)c1 [Epicatechin gallate]	Inhibitor	inhibitors of SpNox
